Literature values as cited in US20070105828A1, “Novel polymorph form M of mifepristone and process for its preparation” (Glenmark Pharmaceuticals Limited, priority 2005, published 2007).

Target: glucocorticoid receptor (Homo sapiens, UniProt P04150)
Conditions: relative to dexamethasone; background statement

Chain of glucocorticoid receptor (P04150 whole entry, species assumed): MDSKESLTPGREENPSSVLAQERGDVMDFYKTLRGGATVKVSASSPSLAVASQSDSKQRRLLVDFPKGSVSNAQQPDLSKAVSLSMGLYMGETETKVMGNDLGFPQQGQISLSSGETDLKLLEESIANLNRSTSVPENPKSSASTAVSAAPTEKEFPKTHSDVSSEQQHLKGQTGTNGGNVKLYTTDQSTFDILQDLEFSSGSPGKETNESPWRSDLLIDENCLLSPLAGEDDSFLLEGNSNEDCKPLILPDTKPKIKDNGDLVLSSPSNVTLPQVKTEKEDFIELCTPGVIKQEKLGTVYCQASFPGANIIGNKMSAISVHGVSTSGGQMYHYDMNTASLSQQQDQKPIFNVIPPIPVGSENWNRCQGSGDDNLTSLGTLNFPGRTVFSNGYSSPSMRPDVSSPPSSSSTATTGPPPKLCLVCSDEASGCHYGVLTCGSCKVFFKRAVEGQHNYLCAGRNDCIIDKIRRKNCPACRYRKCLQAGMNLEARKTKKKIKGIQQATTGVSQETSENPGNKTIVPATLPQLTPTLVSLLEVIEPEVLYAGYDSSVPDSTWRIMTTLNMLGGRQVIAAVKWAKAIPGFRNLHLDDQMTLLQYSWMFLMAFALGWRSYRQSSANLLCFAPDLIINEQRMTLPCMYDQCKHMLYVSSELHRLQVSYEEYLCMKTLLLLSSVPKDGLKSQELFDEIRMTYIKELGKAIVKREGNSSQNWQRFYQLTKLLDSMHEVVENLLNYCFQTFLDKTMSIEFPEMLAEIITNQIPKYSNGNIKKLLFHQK

## CC#C[C@]1(O)CC[C@H]2[C@@H]3CCC4=CC(=O)CCC4=C3[C@@H](c3ccc(N(C)C)cc3)C[C@@]21C [Mifepristone, (11β,17β)-11-[4-(N,N-dimethylamino)phenyl]-17-hydroxy-17-(1-propynyl)estra-4,9-diene-3-one]
  affinity for the glucocorticoid receptor compared with dexamethasone: three times greater than that of dexamethasone
